Experimental data from patent US20100151508A1, “COMPOUNDS” (THE ROBERT GORDON UNIVERSITY, priority 2006, published 2010).

Experiments:
[1] = Fluorescence emission of myricetin derivatives (fluorimetry); assay type: physicochemical; settings: 2.5 μM in ethanol (KB861 in THF); for λmax (nm): fluorescence emission
Description: All the KBX compounds and Myricetin were prepared for analysis of their fluorescent properties (Table 1) using ethanol as the solvent, with the exception of KB861 which used tetrahydrofuran (THF). All measurements were taken at a compound concentration of 2.5 μM.

Caco-2 cells [2] = assay: Probe fluorescence in menadione stressed versus healthy Caco-2 cells (fluorescence microscopy); assay type: cell-based, human; settings: for Effect of menadione concentration on intracellular fluorescence: Caco-2, 1, 10 and 20 μM menadione; for Decrease in fluorescence in stressed cells compared to healthy cells: confluent Caco-2, menadione stress, 20 μM probe; for Fluorescence in menadione exposed cultures relative to control non-stressed cultures: pre-confluent, proliferating Caco-2 cultures
Description: Initially, confluent Caco-2 cells were placed under stress using menadione then incubated with 20 μM KB861 for 30 minutes. The fluorescence of KB861 in stressed cells was then compared to that of KB861 in healthy cells using fluorescence microscopy (FIG. 5).
Confluent Caco-2 cells were placed under stress using Menadione then incubated with 20 μM KB474 for 1 minute (FIG. 6) and 15 minutes (FIG. 7). The fluorescence of the compound in the stressed cells was then compared to its fluorescence in healthy Caco-2 cells.
Pre-confluent, proliferating Caco-2 cultures were also exposed to menadione prior to staining with KB861 or KB474.
The effect of menadione concentration on the intracellular fluorescence of compound KB861 and KB474 was also investigated.

Caco-2 cells [3] = assay: Probe fluorescence in Caco-2 cells after glutathione depletion by BSO; assay type: cell-based, human; settings: Caco-2, glutathione depleted by progressive BSO exposure
Text: To examine probe sensitivity to a less severe, more gradually provoked physiological oxidative stress within Caco-2 cells, cellular glutathione was depleted by progressive buthionine sulphoximine (BSO) exposure.

[4] = In vitro oxidation of KB861 solutions, analysed by fluorimetry; assay type: physicochemical
Description: A series of K5861 solutions (0.5, 1.0, and 1.5 μM) were prepared using THF. […] Another series of KB861 solutions of the same concentrations were prepared and analysed by fluorimetry in their natural unoxidised state (Graph 1).

Row | SMILES | Emission intensity [1] | λmax (nm) [1] [nm] | Effect of menadione concentration on intracellular fluorescence (Caco-2 cells [2]) | Decrease in fluorescence in stressed cells compared to healthy cells (Caco-2 cells [2]; 1 minute and 15 minutes) | Fluorescence in menadione exposed cultures relative to control non-stressed cultures (Caco-2 cells [2]) | Fluorescence emission after BSO exposure (Caco-2 cells [3]) | Fluorescence emission at 540 nm, natural unoxidised state ([4]; 0.5, 1.0, 1.5 μM in THF) | Fluorescence emission at 540 nm after oxidation ([4]; 0.5, 1.0, 1.5 μM in THF, oxidised by excess AgO) | Fluorescence on exposure to hydrogen peroxide ([4]; hydrogen peroxide as stated) | Decrease in fluorescence in stressed cells compared to healthy cells (Caco-2 cells [2]; 30 minutes)
1 | CCCCCCCCCCc1ccc2c(=O)c(O)c(-c3cc(O)c(O)cc3O)oc2c1 [AOX166] | 0.286 | 514.1 | – | – | – | – | – | – | – | –
2 | O=c1c(O)c(-c2ccc(O)c(O)c2O)oc2ccccc12 [AOX558] | 0.166 | 457.1 | – | – | – | – | – | – | – | –
3 | O=c1c(O)c(-c2cc(O)c(O)cc2O)oc2ccccc12 [AOX563] | 0.199 | 517.0 | – | – | – | – | – | – | – | –
4 | CCc1ccc2c(=O)c(O)c(-c3cc(O)c(O)c(O)c3)oc2c1 [KB474, 7-ethyl-3-hydroxy-2-(3,4,5-trihydroxyphenyl)-4H-1-benzopyran-4-one] | 321.113 | 504.9 | dose dependent decrease | at least 75% | dramatically decreased | striking decrease | – | – | – | –
5 | CCCCCCCCCCc1ccc2c(=O)c(O)c(-c3cc(O)c(O)c(O)c3)oc2c1 [KB861, 7-decyl-3-hydroxy-2-(3,4,5-trihydroxyphenyl)-4H-1-benzopyran-4-one] | 664.669 | 544.7 | correlated with the concentration of menadione exposure | – | dramatically decreased | striking decrease | highly fluorescent | almost completely disappears | diminished | 30-40%
6 | O=c1c(O)c(-c2cc(O)c(O)c(O)c2)oc2cc(O)cc(O)c12 [Myricetin, 3,5,7-trihydroxy-2-(3,4,5-trihydroxyphenyl)-4H-1-benzopyran-4-one, reference compound] | 17.419 | 499.5 | – | – | – | – | – | – | – | –
